Reference: ChEMBL document CHEMBL5661983, “The selective anaplastic lymphoma receptor tyrosine kinase inhibitor ASP3026 induces tumor regression and prolongs survival in non-small cell lung cancer model mice” (Mol Cancer Ther, 2014)
Calls of active or inactive are those of the source. The calls are words filed in the database; no cut-off is given here.

Key:
[1] = biological target: Tyrosine-protein kinase FRK (Homo sapiens, UniProt P42685)
[2] = biological target: Tyrosine-protein kinase receptor UFO (Homo sapiens, UniProt P30530)
Chain of Tyrosine-protein kinase receptor UFO (P30530 whole entry): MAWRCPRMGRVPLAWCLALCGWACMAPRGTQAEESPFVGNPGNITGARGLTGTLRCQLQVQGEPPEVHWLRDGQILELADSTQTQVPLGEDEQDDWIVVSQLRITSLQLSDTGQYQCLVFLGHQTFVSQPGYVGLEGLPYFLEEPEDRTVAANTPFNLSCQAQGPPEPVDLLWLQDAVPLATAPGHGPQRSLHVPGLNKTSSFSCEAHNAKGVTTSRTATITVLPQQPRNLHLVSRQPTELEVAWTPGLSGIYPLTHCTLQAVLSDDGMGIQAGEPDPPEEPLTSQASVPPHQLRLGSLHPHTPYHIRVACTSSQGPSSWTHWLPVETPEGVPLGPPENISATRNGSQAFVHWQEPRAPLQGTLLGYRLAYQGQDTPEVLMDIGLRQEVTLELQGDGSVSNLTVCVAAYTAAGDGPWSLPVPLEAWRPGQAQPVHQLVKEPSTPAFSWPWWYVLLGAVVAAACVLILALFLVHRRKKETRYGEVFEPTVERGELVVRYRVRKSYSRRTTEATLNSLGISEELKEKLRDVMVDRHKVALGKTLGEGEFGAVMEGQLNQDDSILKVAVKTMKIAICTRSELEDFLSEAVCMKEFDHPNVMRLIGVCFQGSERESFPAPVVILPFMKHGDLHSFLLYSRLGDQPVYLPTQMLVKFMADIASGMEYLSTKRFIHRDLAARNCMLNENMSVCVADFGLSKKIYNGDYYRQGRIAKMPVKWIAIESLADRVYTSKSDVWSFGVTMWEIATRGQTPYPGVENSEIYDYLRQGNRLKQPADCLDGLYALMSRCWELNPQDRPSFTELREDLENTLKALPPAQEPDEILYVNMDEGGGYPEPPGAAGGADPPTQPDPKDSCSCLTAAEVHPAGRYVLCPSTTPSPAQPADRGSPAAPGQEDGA

[3] = biological target: T1, ALK tyrosine kinase receptor (Homo sapiens, UniProt Q9UM73); test: Inhibition of ALK in human NCI-H2228 cells assessed as reduction in STAT3 phosphorylation by measuring phosphorylated STAT3 level at 100 nmol/L measured after 4 hrs by Western blot analysis relative to control; assay type: cell-based; parameters: scale not given: the % may be the effect or the level left
T1 sequence (Q9UM73 19-1620 limits assumed): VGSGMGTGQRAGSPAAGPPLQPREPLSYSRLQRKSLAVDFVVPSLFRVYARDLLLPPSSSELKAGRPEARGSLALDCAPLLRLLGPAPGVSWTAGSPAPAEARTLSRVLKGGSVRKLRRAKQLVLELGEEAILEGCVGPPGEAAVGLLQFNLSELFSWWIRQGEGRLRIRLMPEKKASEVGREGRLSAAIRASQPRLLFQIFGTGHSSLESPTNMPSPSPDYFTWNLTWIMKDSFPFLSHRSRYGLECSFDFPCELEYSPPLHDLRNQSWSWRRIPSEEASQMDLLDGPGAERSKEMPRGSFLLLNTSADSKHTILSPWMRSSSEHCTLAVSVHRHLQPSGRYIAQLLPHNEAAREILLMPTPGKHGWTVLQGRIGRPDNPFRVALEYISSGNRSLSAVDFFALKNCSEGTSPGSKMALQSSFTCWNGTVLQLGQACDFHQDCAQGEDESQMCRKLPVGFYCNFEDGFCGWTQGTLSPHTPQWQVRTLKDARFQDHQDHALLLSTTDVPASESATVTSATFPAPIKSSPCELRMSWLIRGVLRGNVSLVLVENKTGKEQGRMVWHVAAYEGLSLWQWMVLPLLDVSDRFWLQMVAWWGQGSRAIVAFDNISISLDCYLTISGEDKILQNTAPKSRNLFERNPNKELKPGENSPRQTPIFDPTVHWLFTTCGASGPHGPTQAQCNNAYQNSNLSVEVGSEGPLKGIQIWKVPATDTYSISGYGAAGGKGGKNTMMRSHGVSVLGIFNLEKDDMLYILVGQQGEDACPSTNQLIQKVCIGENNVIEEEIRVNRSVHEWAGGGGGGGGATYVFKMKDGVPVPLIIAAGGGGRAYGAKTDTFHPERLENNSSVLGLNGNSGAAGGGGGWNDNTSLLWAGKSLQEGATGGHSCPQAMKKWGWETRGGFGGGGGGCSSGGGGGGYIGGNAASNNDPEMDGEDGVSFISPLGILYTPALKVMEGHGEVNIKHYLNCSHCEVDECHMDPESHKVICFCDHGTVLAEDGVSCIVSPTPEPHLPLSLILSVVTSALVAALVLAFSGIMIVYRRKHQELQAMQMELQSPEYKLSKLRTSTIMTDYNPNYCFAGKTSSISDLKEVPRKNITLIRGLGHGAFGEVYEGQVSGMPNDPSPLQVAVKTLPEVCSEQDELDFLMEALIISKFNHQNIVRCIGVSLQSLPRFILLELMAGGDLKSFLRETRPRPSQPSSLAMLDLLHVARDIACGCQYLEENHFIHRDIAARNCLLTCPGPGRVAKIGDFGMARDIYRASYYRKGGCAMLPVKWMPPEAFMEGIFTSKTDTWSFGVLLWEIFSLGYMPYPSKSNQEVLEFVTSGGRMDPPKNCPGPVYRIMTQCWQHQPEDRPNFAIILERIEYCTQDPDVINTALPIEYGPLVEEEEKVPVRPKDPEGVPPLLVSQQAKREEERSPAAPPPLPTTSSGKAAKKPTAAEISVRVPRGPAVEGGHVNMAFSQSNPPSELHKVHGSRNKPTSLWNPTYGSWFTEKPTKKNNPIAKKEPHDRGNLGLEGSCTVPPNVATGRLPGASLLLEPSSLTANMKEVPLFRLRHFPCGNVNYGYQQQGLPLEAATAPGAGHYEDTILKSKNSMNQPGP

[4] = Tmax in human NCI-H2228 cell xenografted NOD.CB17-Prkdcscid/J mouse tumor at 1 mg/kg/day for 5 days by HPLC-MS analysis; assay type: ADME, organism-based, Neoplasm; conditions: route po, time 5 day
[5] = tested on: NCI-H2228-Luc; test: Antitumor activity against human NCI-H2228-Luc cells intrapleurally xenografted in NOD.CB17-Prkdcscid/J mouse assessed as median survival time at 3 mg/kg, po administered once daily for 7 weeks starting from 14 days post-cell inoculation measured up to 90 days (reference value: 39 day); assay type: functional; conditions: time 90 day
[6] = Cmax in human NCI-H2228 cell xenografted NOD.CB17-Prkdcscid/J mouse plasma at 1 mg/kg/day for 5 days by HPLC-MS analysis; assay type: ADME, organism-based; conditions: route po, time 5 day
[7] = Ratio of Cmax in human NCI-H2228 cell xenografted NOD.CB17-Prkdcscid/J mouse tumor to plasma at 1 mg/kg/day for 5 days by HPLC-MS analysis; assay type: ADME, organism-based; conditions: tumor and plasma, route po, time 5 day
[8] = biological target: T1, ALK tyrosine kinase receptor; test: Inhibition of ALK in human NCI-H2228 cells assessed as reduction in ERK phosphorylation by measuring phosphorylated ERK level at 10 nmol/L measured after 4 hrs by Western blot analysis relative to control; assay type: cell-based; parameters: scale not given: the % may be the effect or the level left
[9] = Toxicity in human NCI-H2228 cell xenografted NOD.CB17-Prkdcscid/J mouse assessed as change in body weight at 10 mg/kg, po administered once daily for 5 days in presence of paclitaxel; assay type: organism-based; conditions: in vivo, 120 h, time 5 day
[10] = in vivo; conditions: NOD.CB17-Prkdcscid/J, mouse, tumour, po, 10 mg/kg
[11] = AUC (0 to 24 hrs) in human NCI-H2228 cell xenografted NOD.CB17-Prkdcscid/J mouse plasma at 1 mg/kg/day for 5 days by HPLC-MS analysis; assay type: ADME, organism-based; conditions: route po, time 5 day
[12] = biological target: T1, ALK tyrosine kinase receptor; test: Inhibition of ALK in human NCI-H2228 cells assessed as reduction in AKT phosphorylation by measuring phosphorylated AKT level at 10 nmol/L measured after 4 hrs by Western blot analysis relative to control; assay type: cell-based; parameters: scale not given: the % may be the effect or the level left
[13] = AUC (0 to 24 hrs) in human NCI-H2228 cell xenografted NOD.CB17-Prkdcscid/J mouse tumor at 10 mg/kg/day for 5 days by HPLC-MS analysis; assay type: ADME, organism-based, Neoplasm; conditions: in vivo, po, 120 h, time 5 day
[14] = AUC (0 to 24 hrs) in human NCI-H2228 cell xenografted NOD.CB17-Prkdcscid/J mouse plasma at 3 mg/kg/day for 5 days by HPLC-MS analysis; assay type: ADME, organism-based; conditions: route po, time 5 day
[15] = tested on: NCI-H2228-Luc; test: Antitumor activity against human NCI-H2228-Luc cells intrapleurally xenografted in NOD.CB17-Prkdcscid/J mouse assessed as median survival time at 10 mg/kg, po administered once daily for 7 weeks starting from 14 days post-cell inoculation measured up to 90 days (reference value: 39 day); assay type: functional; conditions: time 90 day
[16] = biological target: T1, ALK tyrosine kinase receptor; test: Inhibition of ALK in human NCI-H2228 cells assessed as reduction in ERK phosphorylation by measuring phosphorylated ERK level at 1000 nmol/L measured after 4 hrs by Western blot analysis relative to control; assay type: cell-based; parameters: scale not given: the % may be the effect or the level left
[17] = tested on: NCI-H2228; test: Antitumor activity against human NCI-H2228 cells xenografted in NOD.CB17-Prkdcscid/J mouse assessed as tumor growth inhibition at 30 mg/kg, po administered once daily for 2 weeks relative to control; assay type: functional; conditions: NCI-H2228, 336 h, read-out: TGI
[18] = biological target: Leukocyte tyrosine kinase receptor (Homo sapiens, UniProt P29376)
[19] = biological target: Muscle, skeletal receptor tyrosine-protein kinase (Homo sapiens, UniProt O15146)
Chain of Muscle, skeletal receptor tyrosine-protein kinase (O15146 whole entry): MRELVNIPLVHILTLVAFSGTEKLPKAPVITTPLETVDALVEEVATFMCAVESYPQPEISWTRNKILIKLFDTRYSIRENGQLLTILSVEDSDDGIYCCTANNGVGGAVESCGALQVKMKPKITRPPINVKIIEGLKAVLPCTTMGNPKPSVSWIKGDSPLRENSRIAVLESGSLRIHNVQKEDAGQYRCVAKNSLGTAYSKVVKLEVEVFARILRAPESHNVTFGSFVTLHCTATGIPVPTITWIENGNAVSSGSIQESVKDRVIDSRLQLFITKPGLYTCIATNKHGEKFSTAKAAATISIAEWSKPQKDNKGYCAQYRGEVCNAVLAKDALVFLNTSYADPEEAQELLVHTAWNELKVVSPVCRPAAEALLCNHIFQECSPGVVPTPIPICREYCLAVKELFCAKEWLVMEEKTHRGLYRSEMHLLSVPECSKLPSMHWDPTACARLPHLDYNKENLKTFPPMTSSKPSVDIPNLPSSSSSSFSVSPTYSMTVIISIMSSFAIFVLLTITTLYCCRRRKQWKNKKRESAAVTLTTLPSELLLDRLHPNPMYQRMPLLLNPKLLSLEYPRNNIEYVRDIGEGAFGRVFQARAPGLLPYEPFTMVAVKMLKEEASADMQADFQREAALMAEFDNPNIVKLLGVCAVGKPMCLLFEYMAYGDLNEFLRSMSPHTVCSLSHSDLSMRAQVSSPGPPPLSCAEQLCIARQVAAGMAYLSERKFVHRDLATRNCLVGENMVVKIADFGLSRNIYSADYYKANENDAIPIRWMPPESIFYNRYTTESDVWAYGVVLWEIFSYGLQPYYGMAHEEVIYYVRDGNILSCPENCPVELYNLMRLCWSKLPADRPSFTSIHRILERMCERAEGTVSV

[20] = biological target: Tyrosine-protein kinase Yes (Homo sapiens, UniProt P07947)
Chain of Tyrosine-protein kinase Yes (P07947 whole entry): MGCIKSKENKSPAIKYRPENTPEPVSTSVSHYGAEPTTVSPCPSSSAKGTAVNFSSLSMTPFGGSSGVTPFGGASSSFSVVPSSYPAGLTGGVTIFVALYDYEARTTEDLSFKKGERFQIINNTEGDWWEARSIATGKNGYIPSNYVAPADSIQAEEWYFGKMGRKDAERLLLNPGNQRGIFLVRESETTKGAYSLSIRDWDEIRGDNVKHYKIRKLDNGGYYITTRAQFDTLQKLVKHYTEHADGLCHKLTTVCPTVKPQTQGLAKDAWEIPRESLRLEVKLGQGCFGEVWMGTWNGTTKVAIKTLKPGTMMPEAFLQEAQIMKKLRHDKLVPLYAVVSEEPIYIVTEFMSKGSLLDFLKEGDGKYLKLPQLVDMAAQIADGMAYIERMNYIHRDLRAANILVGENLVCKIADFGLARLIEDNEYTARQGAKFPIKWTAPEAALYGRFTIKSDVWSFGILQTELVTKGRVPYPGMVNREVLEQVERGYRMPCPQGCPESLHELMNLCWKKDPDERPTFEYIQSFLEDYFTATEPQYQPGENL

[21] = tested on: NCI-H2228; test: Antitumor activity against human NCI-H2228 cells xenografted in po dosed NOD.CB17-Prkdcscid/J mouse assessed as tumor growth inhibition administered once daily for 2 weeks; assay type: functional, organism-based; conditions: dose 1-30 mg/kg
[22] = AUC (0 to 24 hrs) in human NCI-H2228 cell xenografted NOD.CB17-Prkdcscid/J mouse plasma at 10 mg/kg/day for 5 days by HPLC-MS analysis; assay type: ADME, organism-based; conditions: route po, time 5 day
[23] = tested on: NCI-H2228; test: Antitumor activity against human NCI-H2228 cells xenografted in NOD.CB17-Prkdcscid/J mouse assessed as tumor regression at 3 mg/kg, po administered once daily for 2 weeks relative to control; assay type: functional
[24] = biological target: EML4-ALK (Homo sapiens, UniProt Q9UM73); assay type: cell-based, BaF3
Description: Inhibition of EML4-ALK (unknown origin) transformed in mouse BaF3 cells by HTRF assay

[25] = tested on: NCI-H2228; test: Antitumor activity against human NCI-H2228 cells xenografted in NOD.CB17-Prkdcscid/J mouse assessed as tumor growth inhibition at 10 mg/kg, po administered once daily for 2 weeks relative to control; assay type: functional; conditions: NCI-H2228, 336 h, read-out: TGI
[26] = tested on: NCI-H2228; test: Antitumor activity against human NCI-H2228 cells xenografted in NOD.CB17-Prkdcscid/J mouse assessed as tumor regression at 1 mg/kg, po administered once daily for 2 weeks relative to control; assay type: functional
[27] = biological target: T1, ALK tyrosine kinase receptor; test: Inhibition of ALK phosphorylation in human NCI-H2228 cells assessed as phosphorylated ALK level at 100 nmol/L measured after 4 hrs by Western blot analysis relative to control; assay type: cell-based; parameters: scale not given: the % may be the effect or the level left
[28] = Toxicity in human NCI-H2228 cell xenografted NOD.CB17-Prkdcscid/J mouse assessed as change in body weight at 10 mg/kg, po administered once daily for 5 days in presence of pemetrexed; assay type: organism-based; conditions: in vivo, 120 h, time 5 day
[29] = Tmax in human NCI-H2228 cell xenografted NOD.CB17-Prkdcscid/J mouse plasma at 3 mg/kg/day for 5 days by HPLC-MS analysis; assay type: ADME, organism-based; conditions: route po, time 5 day
[30] = tested on: NCI-H2228; test: Potentiation of carboplatin-induced antitumor activity against human NCI-H2228 cells xenografted in NOD.CB17-Prkdcscid/J mouse assessed as reduction in tumor volume at 10 mg/kg, po administered once daily for 5 days; assay type: functional, organism-based; conditions: time 5.0 day
[31] = biological target: Ephrin type-A receptor 2 (Homo sapiens, UniProt P29317)
[32] = biological target: Tyrosine-protein kinase Mer (Homo sapiens, UniProt Q12866)
[33] = Ratio of Cmax in human NCI-H2228 cell xenografted NOD.CB17-Prkdcscid/J mouse tumor to plasma at 3 mg/kg/day for 5 days by HPLC-MS analysis; assay type: ADME, organism-based; conditions: tumor and plasma, route po, time 5 day
[34] = tested on: NCI-H2228; test: Antitumor activity against human NCI-H2228 cells xenografted in NOD.CB17-Prkdcscid/J mouse assessed as tumor growth inhibition at 1 mg/kg, po administered once daily for 2 weeks relative to control; assay type: functional; conditions: NCI-H2228, 336 h, read-out: TGI

Chain of Tyrosine-protein kinase FRK (P42685 whole entry): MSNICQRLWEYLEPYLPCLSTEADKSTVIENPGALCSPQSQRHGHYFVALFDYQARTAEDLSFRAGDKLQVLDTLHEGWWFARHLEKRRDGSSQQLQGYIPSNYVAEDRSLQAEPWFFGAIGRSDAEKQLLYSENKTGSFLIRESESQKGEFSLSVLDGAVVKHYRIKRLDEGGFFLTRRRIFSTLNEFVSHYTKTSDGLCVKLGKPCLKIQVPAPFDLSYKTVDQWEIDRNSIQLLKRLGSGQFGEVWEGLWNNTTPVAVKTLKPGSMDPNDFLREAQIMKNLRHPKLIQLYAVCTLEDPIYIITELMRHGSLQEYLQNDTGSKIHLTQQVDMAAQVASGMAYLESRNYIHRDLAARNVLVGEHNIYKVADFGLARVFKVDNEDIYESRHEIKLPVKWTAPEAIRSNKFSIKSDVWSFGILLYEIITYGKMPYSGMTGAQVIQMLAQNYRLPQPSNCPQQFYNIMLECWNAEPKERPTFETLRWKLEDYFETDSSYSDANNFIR

Compound `COc1cc(N2CCC(N3CCN(C)CC3)CC2)ccc1Nc1ncnc(Nc2ccccc2S(=O)(=O)C(C)C)n1` [ASP-3026] has an IC50 [1] of 40 nM, an IC50 [2] greater than 100 nM and an Activity [3] of 52%. The Tmax [4] was 4 h, the MST [5] was 56.5 days and the Cmax [6] was 44.3 ng/mL. The Kp at 120 h [7] was 19, the Activity [8] was 101% and the Activity [9] was “Non-Toxic”. For the same compound, the Kp at 120 h [10] was 20, the AUC at 120 h [11] was 630 ng·h/mL and the Activity [12] was 120%. It also gave an AUC [13] of 121000 ng·h/g, an AUC at 120 h [14] of 1820 ng·h/mL and an MST [15] of 79 days. It also gave an Activity [16] of 36%, an inhibition in vivo at 30 mg/kg [17] greater than 100% and an IC50 [18] of 61 nM. The IC50 [19] was greater than 100 nM, the IC50 [20] was 31.5 nM and the TGI [21] was “Dose-Dependent Effect”. The AUC at 120 h [22] was 5990 ng·h/mL, the Activity [23] was 4% and the IC50 [24] was 10 nM. The inhibition in vivo at 10 mg/kg [25] was greater than 100%, the Activity [26] was 0% and the Activity [27] was 37%. The Activity [28] was “Non-Toxic”, the Tmax [29] was 4 h and the Activity [30] was “inactive”. For the same compound, the IC50 [31] was greater than 1000 nM, the IC50 [32] was greater than 1000 nM and the Kp at 120 h [33] was 16. The inhibition in vivo at 1 mg/kg [34] was 69%.
